Test results published in US7989451B2, “Tricyclic 1,2,4-triazine oxides and compositions for therapeutic use in cancer treatments” (Auckland Uniservices Limited, priority 2005, dated 2011).
Where two headings read alike, the source gives them in different places.

What was measured:
[1] = system: human colon carcinoma HT29; test: Proliferation assay (IC50) under aerobic and hypoxic conditions, HT29; type: cell-based; conditions: for IC50: Homo sapiens, 4 h drug exposure, sulforhodamine B; for HCR: hypoxic cytotoxicity ratio = IC50 aerobic/IC50 hypoxic
Procedure: (§1) Compounds representative of the invention were evaluated under both aerobic and hypoxic conditions in a proliferation assay (IC50), using two cell lines: human colon carcinoma HT29, and human cervical carcinoma SiHa (Table 1).
(§2) Drug exposures were performed in 96-well plates (Nunc) either using a 37 DC humidified incubator (20% O2, 5% CO2) or in the incubator compartment (37° C.) of an anaerobic chamber (Shell Lab) where palladium catalyst scrubbed gas (90% N2, 5% H2, 5% CO2) ensures severe anoxia (<0.001% O2). For each experiment, compounds were simultaneously tested under both oxic and hypoxic conditions and included TPZ as an internal control. An 8-methyl-5-nitroquinoline derivative, SN 24349, known to require very low oxygen concentrations for bioactivation (Siim et al., Br. J. Cancer 1994, 70, 596-603) was used to confirm that strict hypoxia was present during the experiment. […] Cell cultures were grown in αMEM (Gibco) containing 5% heat inactivated FCS and maintained in exponential growth phase. For each individual experiment an appropriate number of cells were seeded (HT29=1100; SiHa=1500) into wells in αMEM+10% FCS+10 mM added glucose+100 μM 2′-deoxycytidine (2′dCyd), and allowed to attach for 2-3 h. High glucose (final concentration 17 mM) and the presence of 2′-dCyd minimize hypoxia-induced cell cycle arrest. Cultures were then exposed to drugs, using 3-fold serial dilutions in duplicate, for a further 4 h. Subsequently cells were washed free of compound using complete media (without glucose/2′-dCyd) and allowed to grow for 5 (oxic) or 6 (anoxic) days. Plates were stained with sulforhodamine B as described previously (Wilson et al., J. Med. Chem. 1989, 32, 31-38) and IC50 values determined.
(§3) HCR=Hypoxic cytotoxicity ratio is defined as the ratio of IC50 values under aerobic and hypoxic conditions (IC50 aerobic/IC50 hypoxic).

[2] = system: human cervical carcinoma SiHa; test: Proliferation assay (IC50) under aerobic and hypoxic conditions, SiHa; type: cell-based; conditions: for IC50: Homo sapiens, 4 h drug exposure, sulforhodamine B; for HCR: hypoxic cytotoxicity ratio = IC50 aerobic/IC50 hypoxic
Procedure: as §1, §2, §3

[3] = HT-29, hypoxic (anaerobic chamber, <0.001% O2), then 6 days growth, read-out: IC50 (μM) hypoxic
[4] = HT-29, oxic (20% O2), then 5 days growth, read-out: IC50 (μM) oxic
[5] = hypoxic (anaerobic chamber, <0.001% O2), then 6 days growth, read-out: IC50 (μM) hypoxic
[6] = oxic (20% O2), then 5 days growth, read-out: IC50 (μM) oxic

Structure (SMILES)	IC50 [1, 3] [µM]	IC50 [1, 4] [µM]	HCR [1]	melting point [°C]	IC50 [2, 5] [µM]	IC50 [2, 6] [µM]	HCR [2]
CCCN(CCC)CCNc1n[n+]([O-])c2cc3c(cc2[n+]1[O-])CCC3 [Compound 29, N^1-(1,4-Dioxido-7,8-dihydro-6H-indeno[5,6-e][1,2,4]triazin-3-yl)-N^2,N^2-dipropyl-1,2-ethanediamine]	2.5	196	77	142 to 145	0.7	63	91
[O-][n+]1nc(NCCCN2CCOCC2)[n+]([O-])c2cc3c(cc21)CCO3 [Compound 212, N-[3-(4-Morpholinyl)propyl]-7,8-dihydrofuro[2,3-g][1,2,4]benzotriazin-3-amine 1,4-Dioxide]	48.6 ± 12.2	225 ± 136	6 ± 4	186 to 189	29.4 ± 4.2	355 ± 240	14 ± 10
CN(C)CCNc1n[n+]([O-])c2cc3c(cc2[n+]1[O-])OCC3 [Compound 208, N^1-(1,4-Dioxido-7,8-dihydrofuro[2,3-g][1,2,4]benzotriazin-3-yl)-N^2,N^2-dimethyl-1,2-ethanediamine]	5.2 ± 0.3	258 ± 207	46 ± 36	186 to 189	1.9 ± 0.2	176 ± 70	128 ± 3
CN(C)CCNc1n[n+]([O-])c2cc3c(cc2[n+]1[O-])OCO3 [Compound 224, N^1-(1,4-Dioxido[1,3]dioxolo[4,5-g][1,2,4]benzotriazin-3-yl)-N^2,N^2-dimethyl-1,2-ethanediamine]	13 ± 7	471 ± 443	26 ± 21	175 to 179	4.7 ± 3.3	304 ± 254	53 ± 17
CCc1n[n+]([O-])c2cc3c(cc2[n+]1[O-])CN(C)CC3 [Compound 261, 3-Ethyl-7-methyl-6,7,8,9-tetrahydro[1,2,4]triazino[6,5-g]isoquinoline 1,4-Dioxide]	13 ± 1	24 ± 2	2 ± 0.2	124 to 128	3.1 ± 0.1	18 ± 1	6 ± 0.2
CC1Cc2cc3c(cc2C1)[n+]([O-])c(CCCO)n[n+]3[O-] (centres unmarked) [Compound 105, 3-(7-Methyl-1,4-dioxido-7,8-dihydro-6H-indeno[5,6-e][1,2,4]triazin-3-yl)-1-propanol]	13 ± 1.3	1040 ± 28	80 ± 2	130 to 131	8 ± 0.4	831 ± 30	104 ± 4
[O-][n+]1nc(NCCCO)[n+]([O-])c2cc3c(cc21)CCC3 [Compound 51, 3-[(1,4-Dioxido-7,8-dihydro-6H-indeno[5,6-e][1,2,4]triazin-3-yl)amino]-1-propanol]	> 50	1610	–	182 to 184	20.5 ± 3.3	455 ± 25	22 ± 1
COC1CN(CCCNc2n[n+]([O-])c3cc4c(cc3[n+]2[O-])CCC4)C1 [Compound 55, N-[3-(3-Methoxy-1-azetidinyl)propyl]-7,8-dihydro-6H-indeno[5,6-e][1,2,4]triazin-3-amine 1,4-Dioxide]	2.4 ± 0.3	233 ± 19	102 ± 22	150 to 152	1.4 ± 0.4	99 ± 14	83 ± 34
Nc1n[n+]([O-])c2cc3c(cc2[n+]1[O-])CCC3 [Compound 20, 7,8-Dihydro-6H-indeno[5,6-e][1,2,4]triazin-3-amine 1,4-Dioxide]	15 ± 6	387 ± 108	27 ± 2	190 to 195	8.3 ± 0.4	253 ± 30	31 ± 5
